A short description of data set [1]: In Vitro Metabolism in Human Liver Microsomes (predicted EH). Format: in vitro ADME. The protocol:
(§1) [formula] [formula] [formula] [formula] • Cbrain=concentration of compound in brain parenchyma (ng/g) • Cbrain homogenate=concentration of compound in brain homogenate (ng/g) • Cbrain vasculature=concentration of compound in brain vasculature (ng/g) • CPlasma=concentration of compound in plasma (ng/mL) • VP=brain plasma volume (26 μL/g for male Swiss Outbred mice) • B:P=brain-to-plasma ratio • Papp=apparent permeability coefficient of compound permeating the blood-brain barrier • ∫0^tcplasmadt=concentration of compound in plasma from time zero to 5 min post-dose (equivalent to the 5 min post-dose plasma concentration, assuming no back diffusion from brain to plasma within this time period) • A=surface area of capillaries forming the blood-brain barrier (240 cm^2/g brain weight for mouse) Assay 7 In Vitro Metabolism in Human Liver Microsomes
The solubility of test compounds and their recovery from the incubation media were confirmed prior to the metabolic assay. Metabolic stability was performed by incubating test compounds individually (1 μM) at 37° C. with human liver microsomes. The metabolic reaction was initiated by the addition of a NADPH-regenerating system (i.e. NADPH is the cofactor required for CYP450-mediated metabolism) and quenched at various time points over the incubation period by the addition of acetonitrile. Additional samples with dual co-factors, i.e. NADPH and UDPGA (the co-factor for glucuronidation), were also included in the incubation for the qualitative assessment of the potential for glucuronide formation. The relative loss of parent compound and formation of metabolic products was monitored by LC/MS using a Waters/Micromass LCT mass spectrometer.
Test compound concentration versus time data were fitted to an exponential decay function to determine the first-order rate constant for substrate depletion. In cases where clear deviation from first-order kinetics was evident, only the initial linear portion of the profile was utilised to determine the degradation rate constant (k). Each substrate depletion rate constant was then used to calculate: [1] degradation half-life, [2] an in vitro intrinsic clearance value (CLint,in vitro); [3] a predicted in vivo intrinsic clearance value (CLint); and [4] a predicted in vivo hepatic extraction ratio (EH).
[formula] • The following scaling parameters were assumed for estimating metabolic stability parameters:
Predictions of In Vivo Hepatic Clearance and Hepatic Extraction Ratios:
The microsome-predicted hepatic extraction ratios (EH) obtained based on the relative rate of degradation of the test compound in vitro, lead to test compounds being classified as low (<0.3), intermediate (0.3-0.7), high (0.7-0.95) or very high (>0.95) extraction compounds. The assumptions underlying this classification are stated below.
The use of hepatic microsomes in the prediction of the in vivo hepatic clearance and extraction ratio is based on a number of assumptions (Obach, 1999; Drug Metab. Dispos. 27: 1350-1359):
1) Hepatic (microsomal) metabolic clearance is the major clearance mechanism for compounds in vivo;
2) NADPH-dependent oxidative metabolism predominates over other metabolic routes (i.e. direct conjugative metabolism, reduction, hydrolysis, etc.); and,
3) Rates of metabolism and enzyme activities in vitro are truly reflective of those that exist in vivo.
Calculations of intrinsic clearance are based on the “in vitro […] method” (Obach, 1999), which has two further inherent assumptions:
1) The substrate concentration employed is well below the apparent KM for substrate turnover; and,
2) There is no significant product inhibition, nor is there any mechanism based inactivation of enzyme.
Data should be considered within these terms of reference.

Data set [2] can be described thus: Plasma Protein Binding, human. Format: in vitro ADME.
A further data set addresses T1, CYP2C9 (Homo sapiens, UniProt P11712).
T1 construct: using a specific substrate approach in human liver microsomes; from tissue; host or cells: human liver microsomes
Description: CYP450 inhibition, specific substrate approach in human liver microsomes: CYP2C9. Format: in vitro ADME. As to the method: CYP450 Isoform Inhibition Using a Specific Substrate Approach
The present study is a “Tier 2” screen to assess potential enzyme inhibition at a test compound concentration of 20 μM using a specific substrate approach in human liver microsomes.
The substrate specific enzyme inhibition study relies on the formation of a metabolite that is mediated by a specific CYP450 isoform using human liver microsomes. In the current study, the following reactions were monitored to assess interactions with specific CYP450 isoforms. A known inhibitor of each isoform was included in each assay as a positive control. The following IC50 values have been reported in the literature using equivalent assay conditions for each CYP450 isoform:
The reaction was initiated by the addition of an NADPH-regenerating system and was quenched by the addition of acetonitrile prior to determining the concentration (and apparent rate of formation) of the specific metabolite by LC/MS.
The IC50 was deemed to be the concentration at which there was a 50% reduction in the amount of metabolite formed, relative to the maximal extent of formation.
For orientation: Liver microsomes are a subcellular fraction often used to study metabolism.

The nature of data set [3]: Metabolism in hepatocytes (predicted EH), dog. Format: in vitro ADME.
The nature of data set [4]: Blood Brain Barrier Penetration (brain to plasma ratio). Format: in vivo. Particulars: male, Swiss Outbred, mouse, brain and plasma; for Kp at 5 min / Kp at 1 h: 150 μg/mouse, IV, read-out: Brain to Plasma Ratio (IV) (B:P); for Kp at 1 h: at 60 min; for Kp at 0.5 h / Kp at 4 h: Oral dosing, read-out: Brain to Plasma Ratio (B:P); for Kp at 0.5 h: at 30 min; for Kp at 4 h: at 240 min.
Excerpt: [formula] [formula] [formula] • CLtotal=total plasma clearance after IV administration • Vdβ=volume of distribution during the elimination phase after IV administration • BA=oral bioavailability • AUCIV=area under the plasma concentration versus time profile from time zero to infinity after IV administration • AUCoral=area under the plasma concentration versus time profile from time zero to infinity after oral administration • β=terminal elimination rate constant after IV administration Assay 6. Blood Brain Barrier Penetration
A bolus injection of each of the test compound (50 μL of a 3 mg/mL aqueous solution containing 40% propylene glycol and 10% ethanol) was administered by tail vein injection to male Swiss Outbred mice (5-7 weeks of age). Alternatively, test compound was orally administered to mice according to standard procedures known to the skilled person.
[…] Mice were anaesthetised approximately 3-4 min prior to blood and brain harvest with an intraperitoneal injection of ketamine and xylazine (133 mg/kg and 10 mg/kg, respectively). The whole brain was placed into pre-weighed polypropylene vials and stored at −20° C. until analysis. On the day of analysis, the whole brain was homogenised in 3 parts of water (on ice to reduce the potential for ex vivo brain degradation) and an aliquot of the brain homogenate and plasma was analysed for compound concentration by LCMS. Standards were prepared by spiking blank brain homogenate and both samples and standards were processed by adding acetonitrile to the tissue homogenate, centrifuging and injecting an aliquot of the supernatant onto the LCMS.
To ensure complete recovery of compound from the brain, brain homogenate was spiked with compound (in 50% acetonitrile:50% water) to a nominal concentration of 500 ng/mL. The concentration of compound in the supernatant was then determined by LCMS and compared to the supernatant concentration when compound was added following precipitation with acetonitrile.
as §1

Data set [5] can be described thus: Metabolism in hepatocytes (predicted EH), human. Format: in vitro ADME.

The values that follow come from patent US9145375B2, “Quinazolinone compounds” (PRANA BIOTECHNOLOGY LIMITED, priority 2008, dated 2015).

Each structure is given as a SMILES string.

T1 sequence (P11712 whole entry): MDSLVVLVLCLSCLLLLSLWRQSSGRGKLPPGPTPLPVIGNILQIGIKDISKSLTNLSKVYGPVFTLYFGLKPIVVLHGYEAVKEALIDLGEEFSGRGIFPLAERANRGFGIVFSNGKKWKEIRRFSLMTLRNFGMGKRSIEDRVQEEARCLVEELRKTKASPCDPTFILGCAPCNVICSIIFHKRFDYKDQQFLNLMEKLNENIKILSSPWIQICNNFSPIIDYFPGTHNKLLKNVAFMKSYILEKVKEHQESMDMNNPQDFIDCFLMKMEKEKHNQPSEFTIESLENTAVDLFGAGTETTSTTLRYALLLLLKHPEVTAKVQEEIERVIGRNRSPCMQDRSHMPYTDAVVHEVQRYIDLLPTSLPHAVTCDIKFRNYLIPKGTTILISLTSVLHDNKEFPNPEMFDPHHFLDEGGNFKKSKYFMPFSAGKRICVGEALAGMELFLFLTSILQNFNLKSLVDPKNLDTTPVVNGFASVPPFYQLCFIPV

Take `CN(C)Cc1nc2c(O)c(Cl)cc(Cl)c2c(=O)n1C` [Compound F4269, 5,7-Dichloro-2-(dimethylamino)methyl-8-hydroxy-3-methylquinazolin-4(3H)-one]: the “Metabolism (Predicted EH), Microsomes: Human” value in data set [1] is reported as “Human <0.2”. Moreover, the fraction unbound in data set [2] was 0.054 to 0.059. On CYP2C9, this compound yielded an IC50 above 30 µM. Besides, the “Metabolism (Predicted EH), Hepatocytes: Dog” value in data set [3] is recorded as “Dog = 0.54”. In data set [4], the Kp at 5 min is 2.96 and the Kp at 1 h was determined as 2.12. Also, the “Metabolism (Predicted EH), Hepatocytes: Human” value in data set [5] is recorded as 0.38.
As to `Br.CCn1c(CNC)nc2c(O)c(Cl)cc(Cl)c2c1=O` [Compound F4486], in data set [4], the Kp at 0.5 h came out at 0.23 and the Kp at 4 h amounted to 0.22.
As to `CNCc1nc2c(O)c(Cl)cc(Cl)c2c(=O)n1C` [Compound F4161], the “Metabolism (Predicted EH), Microsomes: Human” value in data set [1] is reported as “Human <0.2”. Besides, the fraction unbound in data set [2] is 0.043. In data set [3], the “Metabolism (Predicted EH), Hepatocytes: Dog” value was “Dog = 0.56”. The “Metabolism (Predicted EH), Hepatocytes: Human” value in data set [5] is on record as 0.20.
Take `CCNCc1nc2c(O)c(Cl)cc(Cl)c2c(=O)n1CC` [Compound F4495]: the “Metabolism (Predicted EH), Microsomes: Human” value in data set [1] was “Human <0.2”. The same compound registered a fraction unbound in data set [2] of 0.023 to 0.024. Further, at CYP2C9, the IC50 was above 30 µM. For the same compound, in data set [3], the “Metabolism (Predicted EH), Hepatocytes: Dog” value was “Dog = 0.56”. In addition, in data set [4], the Kp at 0.5 h was 0.65 and the Kp at 4 h came out at 0.64. Moreover, the “Metabolism (Predicted EH), Hepatocytes: Human” value in data set [5] is 0.22.
`Br.CCNCc1nc2c(O)c(Cl)cc(Cl)c2c(=O)n1C` [Compound F4496]: the “Metabolism (Predicted EH), Microsomes: Human” value in data set [1] is “Human <0.2”. This compound also showed an IC50 on CYP2C9 above 30 µM. The “Metabolism (Predicted EH), Hepatocytes: Dog” value in data set [3] is “Dog = 0.66”. For the same compound, in data set [4], the Kp at 0.5 h was found to be 1.42 and the Kp at 4 h worked out at 1.97. Besides, in data set [5], the “Metabolism (Predicted EH), Hepatocytes: Human” value is on record as 0.43.
`CCn1c(CN(C)C)nc2c(O)c(Cl)cc(Cl)c2c1=O.Cl` [Compound F4268]: the “Metabolism (Predicted EH), Microsomes: Human” value in data set [1] is “Human <0.2”. Also, the fraction unbound in data set [2] is 0.029. The IC50 against CYP2C9 was above 20 µM. Moreover, in data set [3], the “Metabolism (Predicted EH), Hepatocytes: Dog” value was “Dog = 0.49”. Also, in data set [4], the Kp at 5 min came to 2.96 and the Kp at 1 h was found to be 2.63. In addition, the “Metabolism (Predicted EH), Hepatocytes: Human” value in data set [5] is recorded as 0.28.
On to `C#CCN(C)Cc1nc2c(O)c(Cl)cc(Cl)c2c(=O)n1CC1CC1` [Compound F4387], for which, in data set [1], the “Metabolism (Predicted EH), Microsomes: Human” value was 0.75. Moreover, in data set [4], the Kp at 5 min is 0.65 and the Kp at 1 h was 0.29.
`CCN(CC)Cc1nc2c(O)c(Cl)cc(Cl)c2c(=O)n1CC1CC1` [Compound F4385]: the “Metabolism (Predicted EH), Microsomes: Human” value in data set [1] is listed as “Human <0.2”. In data set [2], this compound gave a fraction unbound of 0.008 to 0.013. The same compound displayed an IC50 against CYP2C9 above 30 µM. For the same compound, the “Metabolism (Predicted EH), Hepatocytes: Dog” value in data set [3] is “Dog = 0.37”. In addition, in data set [4], the Kp at 0.5 h amounted to 0.31 and the Kp at 4 h came out at 0.42. For the same compound, the “Metabolism (Predicted EH), Hepatocytes: Human” value in data set [5] was 0.55.
Take `CN(C)Cc1nc2c(O)c(Cl)cc(Cl)c2c(=O)n1CC1CC1` [Compound F4267]: in data set [1], the “Metabolism (Predicted EH), Microsomes: Human” value is given as “Human <0.31”. Also, the fraction unbound in data set [2] was 0.005. The compound also returned an IC50 at CYP2C9 above 30 µM. Besides, the “Metabolism (Predicted EH), Hepatocytes: Dog” value in data set [3] was “Dog = 0.39”. Besides, in data set [4], the Kp at 5 min turned out to be 3.46 and the Kp at 1 h was determined as 2.02. Further, the “Metabolism (Predicted EH), Hepatocytes: Human” value in data set [5] was 0.44.

Broadly, the fraction unbound is the share of the substance not bound to proteins or other matrix. A high value points to weak binding. By IC50 is commonly meant the midpoint of a concentration-inhibition curve. High values mean weaker potency in that assay, low ones greater potency in that assay.
